Measurements: patent US6399654B1, “Biflavanoids and derivatives thereof as antiviral agents” (priority 1995, dated 2002)
Structures can show the parent of a compound that is named as a salt. Where two headings read alike, the source gives them in different places.

Columns and labels:
[1] = tested on: Hepatitis B Virus (HBV); assay: Inhibition of HBV replication in 2.2.15 cells, extracellular (virion) HBV DNA; details: for SI (CC50/EC90), HBV Virion: selective index; for fold less active/potent than robustaflavone against HBV: in vitro assay against HBV;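 on all read-outs here: extracellular virion HBV DNA in culture medium measured by slot blot hybridization with a 32P-labeled HBV probe, quantified against HBV DNA standards, after 9 days of daily dosing, compared with day 0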
[2] = tested on: Hepatitis B Virus (HBV); assay: HBV replication intermediates (RI, intracellular HBV DNA) in 2.2.15 cells; assay type: cell-based
Description: Test compounds were added daily for a nine continuous day period; the culture medium was collected and stored for analysis of extracellular (virion) HBV DNA after 0, 3, 6, and 9 days of treatment. The treated cells were lysed 24 hours following day 9 of treatment for the analysis of intracellular HBV genomic forms. The overall levels of HBV DNA (both extracellular and intracellular DNA) and the relative rate of HBV replication (intracellular DNA) were analyzed quantitatively. The analysis was performed using blot hybridization techniques and [^32P]-labeled HBV-specific probes. The HBV DNA levels were measured by comparison to known amounts of HBV DNA standards applied to every nitrocellulose membrane (gel or slot blot). An AMBIS beta scanner, which measures the radioactive decay of the hybridized probes directly from the nitrocellulose membranes, was used for the quantitative analysis. Standard curves, generated by multiple analyses, were used to correlate CPM measurements made by the beta scanner with relative levels of target HBV DNA. The levels of HBV virion DNA released into the culture medium were analyzed by a slot blot hybridization procedure. HBV DNA levels were then compared to those at day 0 to determine the effect of the test compound. A known positive drug was evaluated in parallel with test compounds in each test.

[3] = tested on: Hepatitis B Virus (HBV); assay: HBV proteins and nucleic acids in 2.2.15 cells; assay type: cell-based; details: Day 9, 2.2.15 cells; robustaflavone @10 μM
Description: Values of HBV proteins were determined by semi-quantitative EIA performed as previously described.^83 For the EIA analyses, test samples-were diluted (2- to 10-fold) so that the assay values produced were within the linear dynamic range of the EIA assays. Standard curves using serial dilutions of positive assay controls were included in each set of EIA analyses. HBV surface antigen ([…]), preSI protein, and HBc antigen ([…]) are released as extracellular products and were therefore analyzed in culture medium obtained 24 h following the last treatment dose of oligonucleotides or 2′, 3′-ddc. HBV core antigen (HBcAg) is an intracellular viral protein and was assayed in cell extracts produced by Triton-X-100 lysis.^83
Cultures for HBV RNA were maintained on 6-well plates, cultures for HBV virion DNA analyses were maintained on either 96- or 24-well plates, and cultures for all other HBV parameters were maintained on 24-well plates.
The concentrations of antiviral agents used in these studies approximates the EC50 values of the individual agents against intracellular HBV DNA replication intermediates (HBV RI). Cultures were treated with the indicated agents for 9 days using standard procedures. Values reported are the levels of the indicated HBV markers at the end of the treatment period (“DAY 9”) expressed as a percentage (±standard deviation (S.D.) of the average levels in the control cultures at the beginning of the treatment period (“DAY 0”). The method of expression permits an analysis of the variation of the HBV markers in the untreated (control) cultures over the course of the treatment period. HBV nucleic acid levels were measured by standard blot hydridization (dot, Southern, or Northern). HBV protein levels were measured by standard semi-quantitative EIA methods. Cultures for HBV RNA were maintained in 6-well culture plates. The levels of each of two major classes of HBV RNA transcripts are listed separately. Cultures for all other HBV markers were maintained in 24-well culture plates. For each treatment, a total of 4 separate cultures were used for the analysis of each HBV marker at both DAY 0 and DAY 9.
Determination of Mechanism of Action. Measurements of intracellular and extracellular HBV DNA, 3.6 kb and 2.1 kb mRNA fragments, and HBsAg, HBeAg and HBcAg protein markers were conducted as previously described (93).

[4] = molecular target: T1, HIV-1 RT (Human immunodeficiency virus type 1 group M subtype B, UniProt P03366); assay: Anti-HIV-1 RT assay (recombinant enzyme); assay type: biochemical; details: for inhibition at 200 µg/mL: read-out: Anti-HIV-1 RT % Inhibition at 200 μg/ml
T1 construct: made in house; host or cells: Escherichia coli

[5] = tested on: HCMV; assay: HCMV CPE inhibition in HFF cells; details: HFF Cells
[6] = read-out: EC50 (50% effective dose), HBV Virion, 2.2.15 cells, extracellular (virion) HBV DNA, 9 days treatment
[7] = read-out: EC90 (90% effective dose), HBV Virion, 2.2.15 cells, extracellular (virion) HBV DNA, 9 days treatment
[8] = Anti-HIV-1 RT IC50, values in parentheses or in words
[9] = values in parentheses or in words
[10] = HIV-1 RT IC50 (50% inhibition dose)

`Nc1ccn([C@H]2CC[C@@H](CO)O2)c(=O)n1` [2′,3′-ddC, 2′,3′-dideoxycytosine, reference compound] was tested, and the EC50 [1, 6] was 1.8 µM, the EC50 ([1]; read-out: EC50, concentration necessary to decrease HBV DNA levels by 50%, 2.2.15 cells, combinations: with respect to RF) was 1.4 µM and the EC90 [1, 7] was 94 µM. The “SI (CC50/EC90), HBV Virion” value [1] was 28, the EC50 ([2]; 2.2.15 cells, read-out: EC50, HBV replication intermediates (RI) (intracellular DNA)) was 2.4 µM and the “Viral Antigens: HBeAg” value [3] was 88 ± 10 % of Day 0 Control. The “Viral Antigens: HBsAg” value [3] was 90 ± 12 % of Day 0 Control, the “Viral Antigens: HbcAG” value [3] was 91 ± 9 % of Day 0 Control and the “Viral DNA: Extracellular DNA” value [3] was 1 ± 1 % of Day 0 Control. The “Viral DNA: Intracellular DNA” value [3] was 6 ± 1 % of Day 0 Control, the “Viral mRNA: 3.6 kb and 2.1 kb mRNA (first column)” value [3] was 94 ± 7 % of Day 0 Control and the “Viral mRNA: 3.6 kb and 2.1 kb mRNA (second column)” value [3] was 87 ± 9 % of Day 0 Control.
`O=c1cc(-c2ccc(O)cc2)oc2cc(O)cc(O)c12` [Apigeriin, 4′,5,7-trihydroxyflavone, reference compound] was tested, and the “activity against HIV-1 RT (in words)” value [4] was “moderate activity”, the IC50 [4, 8] was 443 µM and the inhibition at 200 µg/mL [4] was 72%.
For `COc1ccc(C2CC(=O)c3c(OC)cc(OC)c(C4C(=O)c5c(OC)cc(OC)cc5OC4c4ccc(OC)cc4)c3O2)cc1` (stereo not drawn) [GB-1a Me6(14), GB-1a hexamethyl ether], the “activity against HIV-1 RT (in words)” value [4] was “inactive” and the “Anti-HIV-1 RT IC50” value [4, 9] was “Inactive”.
For `O=C1C[C@@H](c2ccc(O)cc2)Oc2c1c(O)cc(O[C@@H]1O[C@H](CO)[C@@H](O)[C@H](O)[C@H]1O)c2[C@H]1C(=O)c2c(O)cc(O)cc2O[C@@H]1c1ccc(O)cc1` [GB-1a glucoside (15), GB-1a 7″-O-b-glucoside], the “activity against HIV-1 RT (in words)” value [4] was “no activity”, the “Anti-HIV-1 RT % Inhibition at 200 μg/ml” value [4] was 1.46% and the “Anti-HIV-1 RT IC50” value [4, 9] was “Inactive”.
In the case of `O=C1C[C@@H](c2ccc(O)c(O)c2)Oc2c1c(O)cc(O)c2[C@H]1C(=O)c2c(O)cc(O)cc2O[C@@H]1c1ccc(O)cc1` [GB-2a(16), GB-2a], the “HIV-1 RT IC50 (50% inhibition dose)” value [4] is reported as 94.6 µg/mL, the “Anti-HIV-1 RT % Inhibition at 200 μg/ml” value [4] is reported as 96% and the IC50 ([4]; values in parentheses or in words, read-out: Anti-HIV-1 RT IC50) is reported as 170 µM.
In the case of `Nc1nc2c(ncn2COC(CO)CO)c(=O)[nH]1` [GVC, reference compound], the “HCMV CPE Inhibition EC50” value [5] is reported as 0.4 µg/mL.
With `O=C1CC(c2ccc(O)cc2)Oc2cc(O)cc(O)c21` (stereo not drawn) [Naringenin, 4′,5,7-trihydroxyflavanone, reference compound] the “activity against HIV-1 RT (in words)” value [4] was “slight inhibition” and the inhibition at 200 µg/mL [4] was 34.9%.
In the case of `CC(=O)Oc1ccc(-c2cc(=O)c3c(OC(C)=O)c(-c4cc(-c5cc(=O)c6c(OC(C)=O)cc(OC(C)=O)cc6o5)ccc4OC(C)=O)c(OC(C)=O)cc3o2)cc1` [Robustaflavone Hexaacetate, robustaflavone hexaacetate], the “fold less active/potent than robustaflavone against HBV” value [1] is reported as “approximately three-fold”, the EC50 [1, 6] is reported as 0.73 µM and the EC90 [1, 7] is reported as 2.8 µM. The “SI (CC50/EC90), HBV Virion” value [1] was > 360, the “SI (CC50/EC90), second value in parentheses” value ([2]; Table 2, value in parentheses, not explained) was 163 and the EC50 ([2]; Table 2, value in parentheses, not explained, read-out: EC50, second value in parentheses) was 3.9 µM. For the same compound, the EC90 ([2]; Table 2, value in parentheses, not explained, read-out: EC90, second value in parentheses) was 11 µM.
For `COc1ccc(-c2cc(=O)c3c(OC)c(-c4cc(-c5cc(=O)c6c(OC)cc(OC)cc6o5)ccc4OC)c(OC)cc3o2)cc1` [Robustaflavone hexamethyl ether, hexa-O-methylrobustaflavone], the “fold less active/potent than robustaflavone against HBV” value [1] was ~10 fold, the EC50 [1, 6] was 2.9 µM and the EC90 [1, 7] was 28 µM. For the same compound, the “SI (CC50/EC90), HBV Virion” value [1] was >36.
With `O=c1cc(-c2ccc(OS(=O)(=O)O)c(-c3c(OS(=O)(=O)O)cc4oc(-c5ccc(OS(=O)(=O)O)cc5)cc(=O)c4c3O)c2)oc2cc(OS(=O)(=O)O)cc(O)c12` [Robustaflavone tetrasulfate (17), robustaflavone-7,4′,7″,4′″-tetrasulfate K-salt] the “anti-HBV activity (in words)” value ([1]; 2.2.15 cells) was “extremely effective”, the EC50 ([1]; Hepatitis B virus, 216 h, read-out: EC50 (50% effective dose), HBV Virion, 2.2.15 cells, extracellular (virion) HBV DNA, 9 days treatment) was 0.4 µM and the EC90 ([1]; Hepatitis B virus, 216 h, read-out: EC90 (90% effective dose), HBV Virion, 2.2.15 cells, extracellular (virion) HBV DNA, 9 days treatment) was 3.6 µM. For the same compound, the “SI (CC50/EC90), HBV Virion” value [1] was 110, the IC50 [4, 8] was 144 µM and the IC50 [4, 10] was 168 µM. For the same compound, the inhibition at 200 µg/mL [4] was 95.5%.
With `O=C1c2c(O)cc(O)cc2O[C@@H](c2ccc(O)cc2)[C@@H]1c1c(O)cc(O)c2c(=O)cc(-c3ccc(O)cc3)oc12` [Volkensiflavone (5), volkensiflavone] the “activity against HIV-1 RT (in words)” value [4] was “weakly active” and the inhibition at 200 µg/mL [4] was 45.3%.
`COc1cccc2c1C(=O)c1c(O)c3c(c(O)c1C2=O)C[C@@](O)(C(C)=O)C[C@@H]3O[C@H]1C[C@H](N)[C@H](O)[C@H](C)O1` [daunomycin, reference compound] gave an IC50 [4, 10] of 237 µM.
With `COc1ccc([C@@H]2Oc3cc(OC)cc(OC)c3C(=O)[C@H]2c2c(OC)cc(OC)c3c(=O)cc(-c4ccc(OC)c(OC)c4)oc23)cc1` [morelloflavone heptamethyl ether (8), morelloflavone heptamethyl ether] the “activity against HIV-1 RT (in words)” value [4] was “inactive”.
